Results: patent US10231954B2, “Neurodegenerative therapies” (LYTIX BIOPHARMA AS, priority 2014, dated 2019)

Experiments:
Assay type in all cases: biochemical
TTBK2 = TTBK2 (Homo sapiens, UniProt Q6IQ55); assay: Kinase profiling TTBK2; conditions: 100 micromolar inhibitor concentration, 100 is no change; for remaining activity at 100 µM: read-out: residual kinase activity, TTBK2
From the text: (§1) Any value less that 25 is considered to be highly significant inhibition.

ULK1 = target: T1, ULK1 (Homo sapiens, UniProt O75385); assay: Kinase profiling ULK1; conditions: 100 micromolar inhibitor concentration, 100 is no change; for remaining activity at 100 µM: read-out: residual kinase activity, ULK1
T1 sequence (O75385 1-1050): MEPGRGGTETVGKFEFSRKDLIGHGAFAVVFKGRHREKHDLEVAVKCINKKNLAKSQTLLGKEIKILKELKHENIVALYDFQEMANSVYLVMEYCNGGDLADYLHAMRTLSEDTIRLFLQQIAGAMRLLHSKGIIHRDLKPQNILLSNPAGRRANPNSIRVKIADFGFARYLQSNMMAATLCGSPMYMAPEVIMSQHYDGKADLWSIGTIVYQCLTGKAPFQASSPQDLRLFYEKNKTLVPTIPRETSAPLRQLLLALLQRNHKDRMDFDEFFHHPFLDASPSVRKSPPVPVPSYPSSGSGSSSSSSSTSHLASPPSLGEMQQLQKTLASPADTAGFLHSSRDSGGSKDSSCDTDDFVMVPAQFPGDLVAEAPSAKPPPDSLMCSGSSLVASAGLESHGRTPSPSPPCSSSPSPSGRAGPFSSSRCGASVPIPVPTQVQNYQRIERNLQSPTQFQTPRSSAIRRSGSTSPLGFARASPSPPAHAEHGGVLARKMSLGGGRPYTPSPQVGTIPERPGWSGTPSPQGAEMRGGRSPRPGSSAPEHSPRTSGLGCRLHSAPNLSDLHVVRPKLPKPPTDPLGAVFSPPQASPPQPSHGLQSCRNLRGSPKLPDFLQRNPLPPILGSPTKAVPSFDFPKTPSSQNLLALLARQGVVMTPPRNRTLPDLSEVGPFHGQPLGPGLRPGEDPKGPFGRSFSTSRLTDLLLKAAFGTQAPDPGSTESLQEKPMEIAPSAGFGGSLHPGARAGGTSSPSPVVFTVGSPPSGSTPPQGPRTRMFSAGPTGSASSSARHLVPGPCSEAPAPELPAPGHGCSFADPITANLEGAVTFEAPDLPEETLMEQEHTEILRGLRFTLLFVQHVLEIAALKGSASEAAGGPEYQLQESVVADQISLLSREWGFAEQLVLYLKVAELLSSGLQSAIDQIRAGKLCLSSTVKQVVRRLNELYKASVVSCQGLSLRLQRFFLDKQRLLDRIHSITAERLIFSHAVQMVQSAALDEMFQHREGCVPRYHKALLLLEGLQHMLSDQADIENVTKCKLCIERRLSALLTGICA
From the text: as §1

CDK9-Cyclin T1 = CDK9-Cyclin T1 (Homo sapiens, UniProt P50750); assay: Kinase profiling CDK9-Cyclin T1; conditions: 100 micromolar inhibitor concentration, 100 is no change; for remaining activity at 100 µM: read-out: residual kinase activity, CDK9-Cyclin T1
From the text: as §1

MARK1 = MARK1 (Homo sapiens, UniProt Q9P0L2); assay: Kinase profiling MARK1; conditions: 100 micromolar inhibitor concentration, 100 is no change; for remaining activity at 100 µM: read-out: residual kinase activity, MARK1
From the text: as §1

YES1 = YES1 (Homo sapiens, UniProt P07947); assay: Kinase profiling YES1; conditions: 100 micromolar inhibitor concentration, 100 is no change; for remaining activity at 100 µM: read-out: residual kinase activity, YES1
From the text: as §1

EPH-B2 = target: T2, EPH-B2 (Homo sapiens, UniProt P29323); assay: Kinase profiling EPH-B2; conditions: 100 micromolar inhibitor concentration, 100 is no change; for remaining activity at 100 µM: read-out: residual kinase activity, EPH-B2
T2 sequence (P29323 19-1055): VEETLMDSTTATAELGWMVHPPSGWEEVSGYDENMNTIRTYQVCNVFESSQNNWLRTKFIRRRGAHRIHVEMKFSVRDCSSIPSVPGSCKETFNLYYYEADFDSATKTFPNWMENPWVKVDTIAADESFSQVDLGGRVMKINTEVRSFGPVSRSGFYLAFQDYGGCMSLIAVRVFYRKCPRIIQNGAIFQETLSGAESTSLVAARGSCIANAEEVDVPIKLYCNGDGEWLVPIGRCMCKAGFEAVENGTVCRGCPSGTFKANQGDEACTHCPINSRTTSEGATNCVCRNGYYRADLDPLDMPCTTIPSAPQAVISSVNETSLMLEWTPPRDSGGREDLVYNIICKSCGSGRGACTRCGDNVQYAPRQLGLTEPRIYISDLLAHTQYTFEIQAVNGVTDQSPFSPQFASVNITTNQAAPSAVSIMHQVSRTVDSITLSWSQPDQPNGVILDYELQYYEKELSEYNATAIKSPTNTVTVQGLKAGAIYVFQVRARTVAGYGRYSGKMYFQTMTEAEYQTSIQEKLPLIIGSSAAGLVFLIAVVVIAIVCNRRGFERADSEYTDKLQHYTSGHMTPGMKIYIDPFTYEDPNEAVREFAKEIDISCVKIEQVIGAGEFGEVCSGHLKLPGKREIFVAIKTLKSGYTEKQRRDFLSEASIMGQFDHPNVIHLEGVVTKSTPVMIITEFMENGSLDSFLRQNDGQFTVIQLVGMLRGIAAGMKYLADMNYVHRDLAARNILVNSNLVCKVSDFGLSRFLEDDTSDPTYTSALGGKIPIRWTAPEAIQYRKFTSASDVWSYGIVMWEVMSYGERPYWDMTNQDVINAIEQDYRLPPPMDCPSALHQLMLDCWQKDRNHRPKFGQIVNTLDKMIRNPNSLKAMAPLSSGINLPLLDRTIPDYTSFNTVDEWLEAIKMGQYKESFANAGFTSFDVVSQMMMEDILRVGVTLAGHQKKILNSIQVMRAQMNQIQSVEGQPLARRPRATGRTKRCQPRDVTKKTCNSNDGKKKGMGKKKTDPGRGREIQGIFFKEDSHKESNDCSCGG
From the text: as §1

TTBK2, sequence (Q6IQ55 whole entry, species assumed): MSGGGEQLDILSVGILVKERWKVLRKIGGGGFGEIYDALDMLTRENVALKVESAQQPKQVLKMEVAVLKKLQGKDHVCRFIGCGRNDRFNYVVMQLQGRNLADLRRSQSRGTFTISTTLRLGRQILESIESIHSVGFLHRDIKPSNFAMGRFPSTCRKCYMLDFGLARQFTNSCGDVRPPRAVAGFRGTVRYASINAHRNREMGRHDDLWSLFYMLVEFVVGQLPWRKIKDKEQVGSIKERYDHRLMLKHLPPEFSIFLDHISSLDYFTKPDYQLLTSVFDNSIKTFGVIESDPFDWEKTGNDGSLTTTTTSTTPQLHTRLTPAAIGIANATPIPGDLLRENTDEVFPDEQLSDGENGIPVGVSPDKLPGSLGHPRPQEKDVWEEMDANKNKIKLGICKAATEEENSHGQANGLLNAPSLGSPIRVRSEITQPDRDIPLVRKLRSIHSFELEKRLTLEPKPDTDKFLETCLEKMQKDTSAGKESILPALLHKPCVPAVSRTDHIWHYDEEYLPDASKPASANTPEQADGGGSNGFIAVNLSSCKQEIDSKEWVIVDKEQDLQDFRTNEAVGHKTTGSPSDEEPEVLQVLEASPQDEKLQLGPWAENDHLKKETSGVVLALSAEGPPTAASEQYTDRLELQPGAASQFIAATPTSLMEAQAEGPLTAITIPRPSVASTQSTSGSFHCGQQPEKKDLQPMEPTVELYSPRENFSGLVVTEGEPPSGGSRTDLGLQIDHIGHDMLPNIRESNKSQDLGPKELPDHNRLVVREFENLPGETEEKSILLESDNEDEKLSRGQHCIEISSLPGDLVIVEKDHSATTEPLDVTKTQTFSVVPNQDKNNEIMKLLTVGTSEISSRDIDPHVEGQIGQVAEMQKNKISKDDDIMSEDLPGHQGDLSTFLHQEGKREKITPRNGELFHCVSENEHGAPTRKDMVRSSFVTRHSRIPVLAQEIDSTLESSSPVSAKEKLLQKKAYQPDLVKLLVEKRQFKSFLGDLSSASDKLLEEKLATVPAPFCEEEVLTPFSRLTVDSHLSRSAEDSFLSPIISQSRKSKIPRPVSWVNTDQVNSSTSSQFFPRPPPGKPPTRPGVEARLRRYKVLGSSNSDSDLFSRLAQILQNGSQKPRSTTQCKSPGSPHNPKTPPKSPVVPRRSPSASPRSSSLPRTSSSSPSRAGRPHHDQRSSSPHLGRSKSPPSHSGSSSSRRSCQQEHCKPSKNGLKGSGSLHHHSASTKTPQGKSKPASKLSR
MARK1, sequence (Q9P0L2 whole entry, species assumed): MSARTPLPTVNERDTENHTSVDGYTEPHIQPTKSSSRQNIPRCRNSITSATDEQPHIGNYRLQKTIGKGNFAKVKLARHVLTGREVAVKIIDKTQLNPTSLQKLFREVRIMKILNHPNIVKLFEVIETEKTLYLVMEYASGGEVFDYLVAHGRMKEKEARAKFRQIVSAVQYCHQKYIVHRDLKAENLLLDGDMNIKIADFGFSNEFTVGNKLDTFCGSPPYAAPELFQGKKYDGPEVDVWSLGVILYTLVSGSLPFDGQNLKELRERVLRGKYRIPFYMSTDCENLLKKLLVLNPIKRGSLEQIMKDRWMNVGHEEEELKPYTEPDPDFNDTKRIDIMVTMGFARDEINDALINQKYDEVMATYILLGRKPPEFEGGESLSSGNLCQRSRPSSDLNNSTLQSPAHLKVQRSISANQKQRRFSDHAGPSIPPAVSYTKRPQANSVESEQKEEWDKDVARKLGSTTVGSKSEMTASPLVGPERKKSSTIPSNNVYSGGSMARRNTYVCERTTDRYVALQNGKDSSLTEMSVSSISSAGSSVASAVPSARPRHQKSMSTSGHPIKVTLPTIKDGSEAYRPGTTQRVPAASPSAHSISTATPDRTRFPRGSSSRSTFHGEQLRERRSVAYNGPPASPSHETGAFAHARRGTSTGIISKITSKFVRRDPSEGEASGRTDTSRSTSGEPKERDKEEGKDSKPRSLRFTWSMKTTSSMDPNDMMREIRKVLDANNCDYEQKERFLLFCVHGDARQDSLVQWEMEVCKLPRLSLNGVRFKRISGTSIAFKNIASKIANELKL
YES1, sequence (P07947 whole entry, species assumed): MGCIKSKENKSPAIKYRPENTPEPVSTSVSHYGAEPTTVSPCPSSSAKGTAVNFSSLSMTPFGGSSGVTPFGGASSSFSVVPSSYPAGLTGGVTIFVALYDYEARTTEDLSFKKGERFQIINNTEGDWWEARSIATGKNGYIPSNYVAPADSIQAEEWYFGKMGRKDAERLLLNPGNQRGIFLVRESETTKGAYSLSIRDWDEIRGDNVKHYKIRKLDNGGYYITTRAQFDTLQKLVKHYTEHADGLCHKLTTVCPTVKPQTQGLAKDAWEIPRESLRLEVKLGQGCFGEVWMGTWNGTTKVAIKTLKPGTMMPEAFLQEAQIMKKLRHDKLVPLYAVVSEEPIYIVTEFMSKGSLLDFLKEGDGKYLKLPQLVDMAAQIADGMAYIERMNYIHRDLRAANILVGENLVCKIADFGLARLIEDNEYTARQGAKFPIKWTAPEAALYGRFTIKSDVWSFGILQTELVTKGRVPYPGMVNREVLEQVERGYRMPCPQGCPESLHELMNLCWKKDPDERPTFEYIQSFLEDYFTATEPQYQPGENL
CDK9-Cyclin T1, sequence (P50750 whole entry): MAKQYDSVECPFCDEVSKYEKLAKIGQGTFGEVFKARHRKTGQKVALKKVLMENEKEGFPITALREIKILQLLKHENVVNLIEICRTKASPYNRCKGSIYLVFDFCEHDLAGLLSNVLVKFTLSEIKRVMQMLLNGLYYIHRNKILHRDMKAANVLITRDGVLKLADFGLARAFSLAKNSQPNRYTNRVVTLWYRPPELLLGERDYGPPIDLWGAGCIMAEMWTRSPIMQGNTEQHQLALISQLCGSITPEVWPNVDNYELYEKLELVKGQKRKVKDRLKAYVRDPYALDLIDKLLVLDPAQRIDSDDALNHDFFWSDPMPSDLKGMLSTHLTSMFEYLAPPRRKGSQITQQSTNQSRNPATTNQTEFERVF
CDK9-Cyclin T1, sequence (O60563 whole entry partner): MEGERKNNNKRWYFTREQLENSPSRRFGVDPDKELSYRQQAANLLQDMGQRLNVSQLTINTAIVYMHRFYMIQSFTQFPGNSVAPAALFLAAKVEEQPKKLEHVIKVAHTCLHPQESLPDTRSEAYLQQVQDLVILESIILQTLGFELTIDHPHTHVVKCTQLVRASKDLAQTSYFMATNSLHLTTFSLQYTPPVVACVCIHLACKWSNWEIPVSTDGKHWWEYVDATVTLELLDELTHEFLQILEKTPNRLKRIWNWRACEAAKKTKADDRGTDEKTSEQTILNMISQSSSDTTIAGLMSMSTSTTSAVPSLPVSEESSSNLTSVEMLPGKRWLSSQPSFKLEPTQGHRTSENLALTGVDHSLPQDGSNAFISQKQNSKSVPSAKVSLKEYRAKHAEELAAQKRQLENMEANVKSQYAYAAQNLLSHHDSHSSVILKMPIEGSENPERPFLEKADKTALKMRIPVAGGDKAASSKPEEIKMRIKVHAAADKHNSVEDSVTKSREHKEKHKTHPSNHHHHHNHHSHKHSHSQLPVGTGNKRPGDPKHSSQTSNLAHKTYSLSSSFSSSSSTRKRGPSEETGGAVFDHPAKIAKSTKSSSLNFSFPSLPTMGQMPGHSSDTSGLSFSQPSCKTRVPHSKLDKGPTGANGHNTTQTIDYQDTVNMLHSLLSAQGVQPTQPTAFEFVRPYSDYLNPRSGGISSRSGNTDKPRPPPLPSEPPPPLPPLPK

Compound | residual kinase activity, TTBK2 (TTBK2) | residual kinase activity, ULK1 (ULK1) | residual kinase activity, CDK9-Cyclin T1 (CDK9-Cyclin T1) | residual kinase activity, MARK1 (MARK1) | residual kinase activity, YES1 (YES1) | residual kinase activity, EPH-B2 (EPH-B2) | remaining activity at 100 µM (TTBK2) | remaining activity at 100 µM (ULK1) | remaining activity at 100 µM (CDK9-Cyclin T1) | remaining activity at 100 µM (MARK1) | remaining activity at 100 µM (YES1) | remaining activity at 100 µM (EPH-B2)
O=C(Nc1nc2ccc(O)cc2s1)c1ccccc1 [Compound 03-60] | 44 | 47 | 76 | 96 | 65 | 78 | – | – | – | – | – | –
CC(=O)Nc1nc2cc(C(F)(F)F)ccc2s1 [Compound 03-73] | – | – | – | – | – | – | 91% | 91% | 97% | 88% | 108% | 98%
CC(=O)Nc1nc2cc(C)ccc2s1 [Compound 03-76] | 97 | 82 | 49 | 94 | 104 | 108 | – | – | – | – | – | –
CC(=O)Nc1nc2cc(F)ccc2s1 [Compound 03-77] | – | – | – | – | – | – | 93% | 83% | 46% | 80% | 85% | 114%
O=C(Nc1nc2ccc(O)cc2s1)c1ccncc1 [Compound 08-42] | 74 | 69 | 66 | 75 | 79 | 99 | – | – | – | – | – | –
O=C(Nc1nc2ccc(O)cc2s1)c1cccnc1 [Compound 08-44] | 51 | 78 | 43 | 83 | 74 | 91 | – | – | – | – | – | –
